In article PMC7059627 (FASEB bioAdvances, 2020):

Tests used:
mitochondrial complex I [1] = molecular target: T1, mitochondrial complex I (Bos taurus, UniProt P03887+P17694+P42026); assay: Michaelis-Menten kinetics with DCPIP reduction, NADH as electron donor; format: cell-based
mitochondrial complex I [2] = molecular target: T1, mitochondrial complex I; assay: NADH:decylubiquinone/DCPIP complex I kinetics in freeze-thawed mitochondria; format: biochemical

T1 sequence (P42026 38-216): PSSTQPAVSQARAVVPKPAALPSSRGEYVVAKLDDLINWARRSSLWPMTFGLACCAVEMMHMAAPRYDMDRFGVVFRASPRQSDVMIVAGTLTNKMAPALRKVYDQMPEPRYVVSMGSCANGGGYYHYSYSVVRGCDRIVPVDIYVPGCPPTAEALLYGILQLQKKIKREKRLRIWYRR
T1 sequence (P03887 whole entry): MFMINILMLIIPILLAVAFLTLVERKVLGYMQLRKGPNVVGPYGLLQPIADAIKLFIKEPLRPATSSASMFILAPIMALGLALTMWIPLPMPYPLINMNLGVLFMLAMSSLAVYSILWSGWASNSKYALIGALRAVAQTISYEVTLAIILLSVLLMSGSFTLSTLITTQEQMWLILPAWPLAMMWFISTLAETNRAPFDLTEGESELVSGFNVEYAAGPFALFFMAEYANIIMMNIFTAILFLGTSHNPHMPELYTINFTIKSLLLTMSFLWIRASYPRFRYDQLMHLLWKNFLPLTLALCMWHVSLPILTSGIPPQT
T1 sequence (P17694 34-463): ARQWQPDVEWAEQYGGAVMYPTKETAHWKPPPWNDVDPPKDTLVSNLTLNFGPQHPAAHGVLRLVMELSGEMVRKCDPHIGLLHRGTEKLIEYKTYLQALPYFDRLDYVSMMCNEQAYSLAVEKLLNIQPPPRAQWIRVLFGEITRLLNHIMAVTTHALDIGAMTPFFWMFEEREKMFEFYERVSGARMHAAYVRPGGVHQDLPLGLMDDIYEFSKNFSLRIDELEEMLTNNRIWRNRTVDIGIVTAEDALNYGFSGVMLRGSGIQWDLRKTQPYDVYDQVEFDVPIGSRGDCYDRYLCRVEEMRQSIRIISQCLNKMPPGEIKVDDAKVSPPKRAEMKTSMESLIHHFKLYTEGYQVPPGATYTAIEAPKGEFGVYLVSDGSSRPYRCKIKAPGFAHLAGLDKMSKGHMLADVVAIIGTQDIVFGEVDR

| Structure (SMILES) | Michaelis-Menten kinetics with DCPIP reduction, NADH as electron donor (mitochondrial complex I [1]) | Ki (mitochondrial complex I [2]) [nM] |
| --- | --- | --- |
| CCCCCCCCCCC1=C(C)C(=O)C(OC)=C(OC)C1=O [decylubiquinone] | Kinetics with the substrate analog decylubiquinone at different PQS concentrations were measured |  |
| CCCCCCCc1[nH]c2ccccc2c(=O)c1O [PQS, 2‐heptyl‐3‐hydroxy‐4(1H)‐quinolone] |  | 560 |
